US6448246B1 (dated 2002)

For `O=C(NCc1ccccc1)C1C=Nc2ccccc2S1` (stereo not shown), the melting point was 160 to 162 °C.
